This note sets out measurements from patent US20250034151A1, “WEE1 INHIBITOR, PREPARATION THEREFOR, AND USE THEREOF” (JIANGSU TASLY DIYI PHARMACEUTICAL CO., LTD., priority 2022, published 2025).

Series [1] has as its system H1299 cells. Put plainly: Anti-proliferative effect on H1299 cells by Cell Titer-Glo. It is filed as cell-based. As to conditions: Homo sapiens, NCI-H1299, 72 h, 3 days, read-out: H1299 (IC50, inhibition of proliferation in vitro). Here is the method: (§1) Test Example 2: Evaluation of Cell Proliferation Inhibitory Activity
1. Evaluation of the Anti-Proliferative Effect of Compounds on H1299 Cells by the Cell Titer-Glo Method
(§2) Compound solutions of different concentration gradients were prepared. […] The cell growth group without compound was used as a positive control (maximum signal control) and the medium was used as a negative control (minimum signal control), while ensuring that the final level of DMSO in each reaction well was 0.2%. After removing the medium from the 384-well plate, 25 ul of the configured compound at different concentrations was transferred into the well plate and the compound and cells were incubated in the cell incubator at 37° C. with 5% CO2 for 3 days.
The 384-well plates were removed from the cell incubator and allowed to equilibrate for 1h to room temperature. 25 ul of Cell Titer-Glo assay was added to each well, lysed on a shaker for 2 min and then read out (Luminescence) using a BMG PHERAStar after 10 min incubation. Calculate the inhibition rate from the luminescence signal: first calculate the average of the positive control (maximum signal control) and the negative control (minimum signal control).
was used to calculate the rate of inhibition of the cells by different concentrations of the compounds. The IC50 of the compound on cell activity inhibition was calculated by fitting a log(inhibitor) vs. response-Variable slope model to GraphPad Prism 6. The fitted equation was: Y=Bottom+(Top−Bottom)/(1+10^((Log IC50−X)*HillSlope)), where Y represents the rate of inhibition and X represents the concentration of the known compound after Log.
(§3) The results of the in vitro anti-cell proliferation assays of H1299 and MIA Paca-2 for the example compounds according to the method described above are shown in Table 2, wherein the IC50 of each compound was determined and classified according to the description as follows: […]
In general terms: Cellular ATP, detected with luciferase, serves as a proxy for viable cell number.

A short description of series [2]: Liver microsomes in vitro stability (mouse). The class given is in vitro ADME. The settings on record: read-out: T1/2/min. On the procedure:
1. Preparation of Working Solution:
Microsomes were taken out from the −80° C. refrigerator, rapidly melted in a 37° C. water bath and placed on ice until ready to use. The test article was diluted with DMSO to prepare a 10 mM stock solution, and then diluted with acetonitrile to a 0.5 mM secondary stock solution. […] NADPH was diluted with Buffer C to a working solution of 6 mM for the starter solution. An acetonitrile solution containing an internal standard was prepared as the precipitant, and Verapamil-HCl was chosen as the internal standard at a concentration of 4 ng/ml.
2. Experimental Procedure:
A round-bottom well plate was taken, noted as the reaction plate, and the prepared working solution for each compound was dispensed into the well plate according to the number of replicates and time points (0 h samples were also added to the reaction plate), 30 μL/well; the plate was incubated at 37° C. for 10 min. A separate plate with pointed bottom wells, noted as a precipitation plate, was added with 135 μL precipitant per well; 0 h samples were transferred to the plate after 10 min incubation and 15 μL of starter solution was added; the plate was placed on ice before centrifugation.
The diluted starter solution was added in sufficient quantity to the dispensing plate to facilitate the multichannel pipette aspiration operation.
The reaction was carried out on a warm incubation shaker and 15 μL of starter solution/sample is added to the plate using a multichannel pipette. The reaction was mixed with a slight shake to initiate the reaction, which was accurately timed and recorded using a timer. In general, samples with shorter reaction times are initiated late and vice versa early, allowing sufficient time for multiple plate manipulation to terminate the reaction. For example, as for the four experiments of 5, 15, 30, and 60 min, the 60 min experiment was started first, and the 5 min experiment was started later, so as to leave sufficient time for the 5 min group.
After the reaction time had elapsed, all the solution in the plate was aspirated using the multichannel pipette and added to the precipitation plate to terminate the reaction at that point in time. After all reactions had been terminated, the plates were shaken for ten minutes on a plate shaker at 600 rpm to precipitate the protein. The plate was centrifuged at 4° C. for 15 minutes at maximum rpm. 80 μL of supernatant was taken, 320 μL of pure water was added and mixed for LC-MS analysis.
A general note: Liver microsomes are a subcellular fraction often used to study metabolism.

Series [3] concerns the target T1, Wee1 protein (Homo sapiens, UniProt P30291).
T1 construct: purchased Thermo Fisher PR7373A
Description: Binding of compound to Wee1 protein and Tracer 178 by TR-FRET (Wee1 kinase inhibitory activity). The settings on record: 15 nM WEE1, 50 nM Tracer 178, read-out: IC50 (inhibitory activity against Wee1 kinase). On the procedure:
First, solutions of the compounds in different concentration gradients were prepared. The compounds were dissolved in DMSO and the compounds were diluted 4 folds with a total of 10 dose points and 2 parallel replicates for each concentration.
The IC50 for inhibition of enzyme activity by the compounds was then calculated using GraphPad Prism 6 and fitted with a log (inhibitor) vs. response-Variable slope mode. The fitting equation was: Y=Bottom+(Top−Bottom)/(1+10^((Log IC50−X)*HillSlope)), wherein Y represents the percentage of residual enzyme activity known and X represents the known concentration of compound after the logarithm.
Background: Time-resolved FRET reads energy transfer from a long-lived donor to a nearby acceptor.

The test system of series [4] is MIA PaCa2 cells. Put plainly: Anti-proliferative effect on MIA PaCa2 cells by Cell Titer-Glo. The class given is cell-based. As to conditions: Homo sapiens, MIA PaCa-2, 72 h, 3 days, read-out: MIA PaCa 2 (IC50, inhibition of proliferation in vitro). On the procedure: as §1
2. Evaluation of the Anti-Proliferative Effect of Compounds on MIA PaCa2 Cells by the Cell Titer-Glo Method
as §2
The 384-well plates were removed from the cell incubator and allowed to equilibrate for 1 h to room temperature. 25 ul of Cell Titer-Glo assay was added to each well, lysed on a shaker for 2 min and then read out (Luminescence) using a BMG PHERAStar after 10 min incubation. Calculate the inhibition rate from the luminescence signal: first calculate the average of the positive control (maximum signal control) and the negative control (minimum signal control).
was used to calculate the rate of inhibition of the cells by different concentrations of the compounds. The IC50 of the compound on cell activity inhibition was calculated by fitting a log(inhibitor) vs. response-Variable slope model to GraphPad Prism 6. The fitted equation was: Y=Bottom+(Top-Bottom)/(1+10^((Log IC50−X)*HillSlope)), wherein Y represents the rate of inhibition and X represents the concentration of the known compound after Log.
as §3

T1 sequence (P30291 whole entry): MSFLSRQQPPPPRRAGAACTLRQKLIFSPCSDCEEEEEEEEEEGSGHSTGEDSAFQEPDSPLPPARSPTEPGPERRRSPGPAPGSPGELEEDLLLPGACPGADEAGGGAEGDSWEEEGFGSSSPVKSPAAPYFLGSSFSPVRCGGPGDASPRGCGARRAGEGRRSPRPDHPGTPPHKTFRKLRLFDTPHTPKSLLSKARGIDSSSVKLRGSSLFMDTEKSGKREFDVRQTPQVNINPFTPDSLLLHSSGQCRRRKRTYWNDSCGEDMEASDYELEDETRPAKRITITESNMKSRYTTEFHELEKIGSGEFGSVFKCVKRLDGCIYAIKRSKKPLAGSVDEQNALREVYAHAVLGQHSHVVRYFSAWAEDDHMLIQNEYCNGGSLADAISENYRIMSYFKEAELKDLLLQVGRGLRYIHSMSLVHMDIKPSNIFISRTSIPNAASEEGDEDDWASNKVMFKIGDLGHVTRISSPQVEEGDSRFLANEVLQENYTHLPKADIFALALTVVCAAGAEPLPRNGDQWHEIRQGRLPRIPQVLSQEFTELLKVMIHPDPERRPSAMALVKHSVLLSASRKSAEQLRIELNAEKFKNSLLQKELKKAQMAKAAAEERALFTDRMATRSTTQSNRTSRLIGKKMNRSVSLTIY

`C=CCn1c(=O)c2cnc(Nc3ccc(N4CCC(N(C)C5CN6CCC5CC6)CC4)cc3)nc2n1-c1cccc(N=S(C)(C)=O)n1` (centres unmarked) [Compound 8]: the results for the IC50 in series [1] and in series [3] were 5000 to 10000 nM and 5 to 10 nM, respectively. In addition, the half-life at 1 µM in series [2] is above 120 min.
For the molecule `C=CCn1c(=O)c2cnc(Nc3ccc(N4CCN(C5CN6CCC5CC6)CC4)cc3)nc2n1-c1cccc(N=S(C)(C)=O)n1` (centres unmarked) [Compound 11], the IC50 was 100 to 1000 nM in series [1], 100 to 1000 nM in series [4] and 5 to 10 nM in series [3]. Also, the half-life at 1 µM in series [2] came to 110 min.
For the molecule `C=CCn1c(=O)c2cnc(Nc3ccc4c(c3)CN(C3CCN(C)CC3)C4=O)nc2n1-c1cccc(N=S(C)(C)=O)n1` [Compound 15], the figures for the IC50 in series [1], in series [4] and in series [3] were above 10000 nM, 2000 to 5000 nM and 5 to 10 nM, respectively. The half-life at 1 µM in series [2] was above 120 min.
For `C=CCn1c(=O)c2cnc(Nc3ccc(N4CCC(N5CC6CC5CN6C)CC4)cc3)nc2n1-c1cccc(C(C)(C)O)n1` (centres unmarked) [Compound 18], the figures for the IC50 in series [1], in series [4] and in series [3] were 2000 to 5000 nM, 100 to 1000 nM and 5 to 10 nM, respectively. Moreover, in series [2], the half-life at 1 µM is above 120 min.
For the molecule `C=CCn1c(=O)c2cnc(Nc3ccc(N(C)[C@@H]4CN5CCC4CC5)cc3)nc2n1-c1cccc(C(C)(C)O)n1` [Compound 19], the IC50 in series [1] is above 10000 nM; in series [4], above 10000 nM; in series [3] it was below 5 nM. Further, the half-life at 1 µM in series [2] stood at 48.1 min.
Turning to `C=CCn1c(=O)c2cnc(Nc3ccc(N4CC5CC(CN(C)C5)C4)cc3)nc2n1-c1cccc(C(C)(C)O)n1` [Compound 23], the IC50 in series [1] is above 10000 nM; in series [4], 2000 to 5000 nM; in series [3], 10 to 100 nM. Besides, the half-life at 1 µM in series [2] is 38.7 min.
Taken in the same sequence, the figures for `C=CCn1c(=O)c2cnc(Nc3ccc4c(c3)C(=O)N(C3CCN(C)CC3)C4)nc2n1-c1cccc(N=S(C)(C)=O)n1` [Compound 24] were 5000 to 10000 nM, 100 to 1000 nM, 10 to 100 nM and above 120 min.
As to `C=CCn1c(=O)c2cnc(Nc3ccc(N4C5CCC4CN(C)C5)cc3)nc2n1-c1cccc(C(C)(C)O)n1` [Compound 25], the IC50 in series [1] was 1000 to 2000 nM; in series [4], 1000 to 2000 nM; in series [3], 5 to 10 nM. For the same molecule, the half-life at 1 µM in series [2] was determined as 14.1 min.
`C=CCn1c(=O)c2cnc(Nc3ccc(N4CC5CCC(C4)N5C)cc3)nc2n1-c1cccc(C(C)(C)O)n1` [Compound 28]: the IC50 lay within 100 to 1000 nM in series [1], 100 to 1000 nM in series [4] and 5 to 10 nM in series [3]. In series [2], the half-life at 1 µM was 15 min.
As for `C=CCn1c(=O)c2cnc(Nc3ccc(-n4cc(N5CCCC5)cn4)cc3)nc2n1-c1cccc(C(C)(C)O)n1` [Compound 55], the figures for the IC50 in series [1], in series [4] and in series [3] were 1000 to 2000 nM, 1000 to 2000 nM and 10 to 100 nM, respectively.
For `C=CCn1c(=O)c2cnc(Nc3ccc(N4CC5CC(C4)N5C4COC4)cc3)nc2n1-c1cccc(C(C)(C)O)n1` [Compound 58], the IC50 in series [1] was 100 to 1000 nM; in series [4], 100 to 1000 nM; in series [3], 5 to 10 nM.
